Data taken from US10463664B2, “Inhibitors of HSV nucleotidyl transferases and uses therefor” (Saint Louis University, priority 2013, dated 2019).

What was measured:
HSV-2 [1] = test: HSV-2 replication inhibition in primary human foreskin fibroblasts; assay type: cell-based, herpes simplex virus 2; set-up: key to Replication inhibition HSV-2 50 μM (not quantified): NQ: Not quantified due to visible toxicity; conditions: HFF cells
Experimental: (§1) Anti-HSV-1 and -HSV-2 Replication Assay. Compounds to be screened were diluted in PBS supplemented to contain 2% newborn calf serum and 1% glutamine, and added in 100 μL, volume to confluent cell monolayers in 24-well cluster plates. Immediately thereafter HSV-1 and HSV-2, diluted in the supplemented PBS medium, were added to the wells in 50 μl volume such that the final concentration of compound was 50 μM and 5 μM and the multiplicity of infection was 0.1. The plates were incubated at 37° C. for 1 hour and then virus-containing inoculum was removed and the wells were washed once in PBS. Compounds, diluted to 50 μM and 5 μM in DMEM supplemented to contain 2% newborn calf serum and 1% each penicillin/streptomycin, were added at 0.5 mL/well. Plates were incubated at 37° C. an additional 23 hr, and then the plates were visually inspected through a phase contrast microscope for cytopathic effect, and for toxic effect. […] The entire contents of each well were collected by scraping. Samples were frozen at −80° C., and then subsequently thawed, sonicated, and infectious virus titer was determined by standard plaque assay on Vero cell monolayers. Because the compounds were dissolved at 10 mM in 100% DMSO, equivalent dilutions of DMSO were added to additional wells as a control for effects of the diluent. Each experiment was repeated once. EC50 values were determined as above except that serial dilutions of the compound to be tested were prepared starting at 50 μM. The inhibitory values were calculated by non-linear curve-fitting in GraphPad Prism.
(§2) Inhibition of viral replication was next assessed in human foreskin fibroblasts (HFF) to determine whether NTS inhibitors could block HSV-1 and HSV-2 replication in a physiologically relevant, primary human cell type. […] Viral yields 24 hours post-infection were measured by plaque assay.

Vero cells [2] = test: Qualitative (visual) cytotoxicity assessment in primary screening; assay type: cell-based; set-up: key to Vero cell toxicity Qualitative: T: visual evidence of toxicity at 50 μM; conditions: visual, 50 μM
Experimental: Compound Cytotoxicity. Compound cytotoxicity was measured both subjectively and quantitatively. Subjective assessments were done by visually inspecting the infected cells at the end of the 24 hours infection window through a phase-contrast microscope.

[3] = system: primary human foreskin fibroblasts; test: in vitro
Experimental: (§3) Toxicity Assays. Qualitative assessments of cytotoxicity were done visually by inspecting the cells in the primary screening assays. For the quantitative assays, cells were plated in 96-well plates at 1.0×10^4 per well. The next day the compounds were added at 0.78 to 100 μM in a final concentration of 1% (v/v) DMSO, and the cells were incubated for 24 hours under conditions identical to those employed for the viral replication inhibition assays. Mitochondrial toxicity was measured by incubating the cells with 0.25 mg/mL thiazolyl blue tetrazolium bromide (MTT, SigmaAldrich Chemical Co.), the cultures were incubated for 60 min, metabolites were solubilized in acidic isopropanol, and absorbance was read at 570 nm. Cellular lysis was measured by detecting release of intracellular proteases with the CytoTox-Glo assay (Promega) according to the manufacturer's instructions. Percent viability was determined for each compound concentration from the maximal absorbance or luminosity data, and then CC50 values were calculated by non-linear curve fitting using GraphPad Prism.
as §2

HSV-1 [4] = test: HSV-1 replication inhibition in primary human foreskin fibroblasts; assay type: cell-based, herpes simplex virus 1; set-up: key to Replication inhibition HSV-1 50 μM (not quantified): NQ: Not quantified due to visible toxicity; conditions: HFF cells
Experimental: as §1, §2

human RNaseH1 = target: T1, human RNaseH1 (Homo sapiens, UniProt O60930); test: Biochemical inhibition of human RNaseH1 (oligonucleotide-directed RNA cleavage assay); conditions: compounds at 60, 20 or 10 μM
T1 construct: hexahistidine; made in house; host or cells: E. coli
T1 sequence (O60930 1-286): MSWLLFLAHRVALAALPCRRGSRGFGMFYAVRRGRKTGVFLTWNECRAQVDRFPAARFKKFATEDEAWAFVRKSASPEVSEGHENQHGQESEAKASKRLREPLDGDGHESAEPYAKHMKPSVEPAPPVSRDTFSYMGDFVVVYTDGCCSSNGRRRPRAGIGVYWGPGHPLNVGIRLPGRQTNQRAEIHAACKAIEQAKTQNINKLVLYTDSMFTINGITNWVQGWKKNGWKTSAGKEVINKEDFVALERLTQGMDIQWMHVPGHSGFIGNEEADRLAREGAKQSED
Experimental: (§4) Biochemical inhibition of HBV RNaseH and human RNaseH1 activity. […] RNaseH activity was measured using an oligonucleotide-directed RNA cleavage assay in which a DNA oligonucleotide is annealed to an internally ^32P-labeled RNA, the RNA:DNA heteroduplex is incubated with the enzyme to permit cleavage, and then the RNA cleavage products are resolved by electrophoresis and detected by autoradiography. The compounds were included in the reaction mixes at 60, 20, or 10 μM and the amount of the RNA cleavage products in the compound-containing reactions was compared to reactions in which an equivalent concentration of DMSO was added as a vehicle control. The data were quantified using ImageJ.

HSV-1 [5] = test: Anti-HSV-1 replication assay in Vero cells, titer by plaque assay; assay type: cell-based, herpes simplex virus 1; conditions: for Anti-HSV-1 Log10 suppression 5 μM / Anti-HSV-1 Log10 suppression 50 μM: moi 0.1, 24 h, relative to DMSO; for Inhibition of HSV-1 replication (in words): primary screening
Experimental: as §1
(§5) Monolayers were microscopically inspected 24 hours post-infection and wells in which more cells were visually healthier than the DMSO-treated controls were collected. Viral titers in the culture lysates were then determined by standard plaque assay on Vero cells. Inhibition of viral replication was categorized as <1 log10 relative to the DMSO-treated control, 1 to 3 log10 suppression, or ≥3 log10 suppression. […] Additionally, four polyoxygenated heterocycle compounds were tested (#128, 138, 139, 140).

HBV RNaseH = target: T2, HBV RNaseH (Hepatitis B virus genotype A2 subtype adw2, UniProt P03159); test: Biochemical inhibition of HBV RNaseH (oligonucleotide-directed RNA cleavage assay); conditions: compounds at 60, 20 or 10 μM
T2 construct: One of the inventors recently produced active recombinant HBV RNase H; hexahistidine; made in house; host or cells: E. coli
T2 sequence (P03159 693-845): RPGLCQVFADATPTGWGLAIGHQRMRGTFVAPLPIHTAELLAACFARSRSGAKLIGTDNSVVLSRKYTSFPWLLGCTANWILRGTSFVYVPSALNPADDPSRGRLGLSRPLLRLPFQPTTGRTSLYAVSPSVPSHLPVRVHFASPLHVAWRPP
Experimental: as §4

HSV-2 [6] = test: Anti-HSV-2 replication assay in Vero cells, titer by plaque assay; assay type: cell-based, herpes simplex virus 2; conditions: for Anti-HSV-2 Log10 suppression 5 μM / Anti-HSV-2 Log10 suppression 50 μM: moi 0.1, 24 h, relative to DMSO; for Inhibition of HSV-2 replication (in words): primary screening
Experimental: as §1, §5

Vero cells [7] = test: CytoTox-Glo cellular lysis assay in Vero cells; assay type: cell-based; conditions: 24 h; read-out: Vero cell toxicity CTG CC50
Experimental: Quantitative toxicity measurements were conducted for all compounds that suppressed HSV replication by approximately 2 login or more at 5 μM plus a number of compounds with lesser inhibitory activity for comparison. Toxicity was assessed by measuring release of intracellular proteases into the culture medium due to cellular lysis. […] Consistent with the subjective assessments of toxicity, all compounds selected for quantitative toxicity assessment had CC50 values ≥50 μM by both the MTT and cellular lysis assays (Table 1).

Vero cells [8] = test: MTT mitochondrial toxicity assay in Vero cells; assay type: cell-based; conditions: 24 h; read-out: Vero cell toxicity MTT CC50
in vitro = conditions: human
Experimental: as §3, §2

[9] = relative to DMSO-treated control
[10] = 50 μM, relative to DMSO-treated control

Row | SMILES | Anti-Human RNaseH1 (human RNaseH1) | Anti-HBV RNaseH (HBV RNaseH) | Replication inhibition HSV-2 5 μM (HSV-2 [1]; [9]) | Vero cell toxicity Qualitative (Vero cells [2]) | Replication inhibition HSV-1 5 μM (HSV-1 [4]; [9]) | Anti-HSV-1 Log10 suppression 5 μM (HSV-1 [5]; 5 μM) | Anti-HSV-2 Log10 suppression 5 μM (HSV-2 [6]; 5 μM) | Anti-HSV-2 Log10 suppression 50 μM (screening symbol) (HSV-2 [6]; visual inspection) | CC50 (Vero cells [7]) | CC50 (Vero cells [8]) | Anti-HSV-1 Log10 suppression 50 μM (HSV-1 [5]; 50 μM) | Anti-HSV-2 Log10 suppression 50 μM (HSV-2 [6]) | other results
1 | COc1cc2c(cc1Cc1cccc(Cl)c1F)c(=O)c(C(=O)O)cn2[C@H](CO)C(C)C [Compound 10, Elvitegravir, reference compound] | − (no inhibition at 60 μM) | − (no inhibition at 60 μM) |  | T |  |  |  | − |  |  |  |  | Anti-HSV-1 Log10 suppression 5 μM (screening symbol) (HSV-1 [5]; 5 μM, visual inspection): −; Anti-HSV-1 Log10 suppression 50 μM (screening symbol) (HSV-1 [5]; 50 μM, visual inspection): −; Anti-HSV-2 Log10 suppression 5 μM (screening symbol) (HSV-2 [6]; 5 μM, visual inspection): −
2 | O=c1cccccc1O [Compound 53, Tropolone] | − (no inhibition at 60 μM) | − (no inhibition at 60 μM) | 0.29 log10 |  | −0.03 log10 | 0.25 log10 | 0.45 log10 |  |  |  | 1.90 log10 | 1.45 log10 | Replication inhibition HSV-2 50 μM (HSV-2 [1]; [10]): 1.22 log10; CC50 at 24 h (in vitro): > 100 µM; Replication inhibition HSV-1 50 μM (HSV-1 [4]; [10]): 2.13 log10; Inhibition of HSV-1 replication (in words) (HSV-1 [5]): negligible inhibitors; Inhibition of HSV-2 replication (in words) (HSV-2 [6]): negligible inhibitors
3 | O=c1cc2oc3cc(O)c(O)cc3c(-c3ccccc3)c-2cc1O [Compound 31] | +++ (inhibition at 10 μM) | +++ (inhibition at 10 μM) |  |  |  | 0.21 log10 | 0.22 log10 |  | > 100 µM | > 100 µM | 3.01 log10 | 3.56 log10 | 
4 | O=C1Cc2ccccc2C(=O)N1O [Compound 1] |  | +++ (inhibition at 10 μM) |  | T? |  | 0.28 log10 | −0.11 log10 |  | > 100 µM | > 100 µM | 2.66 log10 | 3.12 log10 | 

The next lines start with results.

Row | Anti-Human RNaseH1 (human RNaseH1) | Anti-HBV RNaseH (HBV RNaseH) | SMILES | Replication inhibition HSV-2 5 μM (HSV-2 [1]; [9]) | Vero cell toxicity Qualitative (Vero cells [2]) | Replication inhibition HSV-1 5 μM (HSV-1 [4]; [9]) | Anti-HSV-1 Log10 suppression 5 μM (HSV-1 [5]; 5 μM) | Anti-HSV-2 Log10 suppression 5 μM (HSV-2 [6]; 5 μM) | Anti-HSV-2 Log10 suppression 50 μM (screening symbol) (HSV-2 [6]; visual inspection) | CC50 (Vero cells [7]) | CC50 (Vero cells [8]) | Anti-HSV-1 Log10 suppression 50 μM (HSV-1 [5]; 50 μM) | Anti-HSV-2 Log10 suppression 50 μM (HSV-2 [6]) | other results
5 | ++ (inhibition at 20 μM) | − (no inhibition at 60 μM) | Cc1ccc(S(=O)(=O)Oc2cccccc2=O)cc1 [Compound 61] | −0.05 log10 | T | −0.17 log10 | 0.15 log10 | 0.23 log10 | − |  |  |  |  | Replication inhibition HSV-2 50 μM (not quantified) (HSV-2 [1]; 50 μM): NQ; CC50 [3]: 27.8 µM; Toxicity in HFF cells (in words) [3]: some toxicity; Replication inhibition HSV-1 50 μM (not quantified) (HSV-1 [4]; 50 μM): NQ; Inhibition of HSV-1 replication (in words) (HSV-1 [5]): negligible inhibitors; Inhibition of HSV-2 replication (in words) (HSV-2 [6]): negligible inhibitors
6 | − (no inhibition at 60 μM) | − (no inhibition at 60 μM) | C[C@H](Cc1ccc(O)c(O)c1)[C@@H](C)Cc1ccc(O)c(O)c1 [Compound 2] |  |  |  | −0.19 log10 | −0.15 log10 |  | > 100 µM | > 100 µM | 3.21 log10 | 4.38 log10 | 
7 | − (no inhibition at 60 μM) | − (no inhibition at 60 μM) | O=Nc1ccc(O)c(=O)cc1 [Compound 50, 5-nitrosotropolone] | 2.88 log10 | T | 2.92 log10 |  |  | + |  |  |  |  | Replication inhibition HSV-2 50 μM (not quantified) (HSV-2 [1]; 50 μM): NQ; CC50 [3]: 40.4 µM; Toxicity in HFF cells (in words) [3]: some toxicity; Replication inhibition HSV-1 50 μM (not quantified) (HSV-1 [4]; 50 μM): NQ^4
